Patent US10526319B2, “Halogenated quinazolin-THF-amines as PDE1 inhibitors” (H. Lundbeck A/S, priority 2014, dated 2020)

Key:
Assay type in all cases: biochemical
Details in all cases: 15 nM tritium labelled cAMP, 1 h at room temperature
[1] = biological target: PDE1C (Homo sapiens, UniProt Q14123); experiment: PDE1 inhibition assay (SPA, tritium labelled cAMP), PDE1C
Description: (§1) PDE1A, PDE1B and PDE1C assays were performed as follows: the assays was performed in 60 μL samples containing a fixed amount of the PDE1 enzym1 (sufficient to convert 20-25% of the cyclic nucleotide substrate), a buffer (50 mM HEPES pH 7.6; 10 mM MgCl2; 0.02% Tween20), 0.1 mg/ml BSA, 15 nM tritium labelled cAMP and varying amounts of inhibitors. Reactions were initiated by addition of the cyclic nucleotide substrate, and reactions were allowed to proceed for 1 h at room temperature before being terminated through mixing with 20 μL (0.2 mg) yttrium silicate SPA beads (PerkinElmer). The beads were allowed to settle for 1 h in the dark before the plates were counted in a Wallac 1450 Microbeta counter. The measured signals were converted to activity relative to an uninhibited control (100%) and IC50 values were calculated using XlFit (model 205, IDBS).

[2] = biological target: PDE1A (Homo sapiens, UniProt P54750); experiment: PDE1 inhibition assay (SPA, tritium labelled cAMP), PDE1A
Sequence of PDE1A (P54750 whole entry): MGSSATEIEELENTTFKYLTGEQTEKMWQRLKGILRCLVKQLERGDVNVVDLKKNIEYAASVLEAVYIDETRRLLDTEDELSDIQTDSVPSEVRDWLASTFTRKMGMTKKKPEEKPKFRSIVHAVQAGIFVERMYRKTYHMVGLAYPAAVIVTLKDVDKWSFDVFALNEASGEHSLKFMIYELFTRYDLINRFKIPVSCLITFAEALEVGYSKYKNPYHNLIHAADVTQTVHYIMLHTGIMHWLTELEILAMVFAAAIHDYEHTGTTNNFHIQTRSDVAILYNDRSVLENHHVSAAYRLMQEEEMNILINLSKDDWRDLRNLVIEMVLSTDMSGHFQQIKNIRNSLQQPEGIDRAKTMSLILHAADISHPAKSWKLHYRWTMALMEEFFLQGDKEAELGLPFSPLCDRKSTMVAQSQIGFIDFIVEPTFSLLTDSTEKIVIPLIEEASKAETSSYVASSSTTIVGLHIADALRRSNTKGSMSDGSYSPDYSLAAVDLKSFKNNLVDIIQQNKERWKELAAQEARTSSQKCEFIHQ
Description: as §1

[3] = biological target: PDE1B (Homo sapiens, UniProt Q01064); experiment: PDE1 inhibition assay (SPA, tritium labelled cAMP), PDE1B
Sequence of PDE1B (Q01064 whole entry): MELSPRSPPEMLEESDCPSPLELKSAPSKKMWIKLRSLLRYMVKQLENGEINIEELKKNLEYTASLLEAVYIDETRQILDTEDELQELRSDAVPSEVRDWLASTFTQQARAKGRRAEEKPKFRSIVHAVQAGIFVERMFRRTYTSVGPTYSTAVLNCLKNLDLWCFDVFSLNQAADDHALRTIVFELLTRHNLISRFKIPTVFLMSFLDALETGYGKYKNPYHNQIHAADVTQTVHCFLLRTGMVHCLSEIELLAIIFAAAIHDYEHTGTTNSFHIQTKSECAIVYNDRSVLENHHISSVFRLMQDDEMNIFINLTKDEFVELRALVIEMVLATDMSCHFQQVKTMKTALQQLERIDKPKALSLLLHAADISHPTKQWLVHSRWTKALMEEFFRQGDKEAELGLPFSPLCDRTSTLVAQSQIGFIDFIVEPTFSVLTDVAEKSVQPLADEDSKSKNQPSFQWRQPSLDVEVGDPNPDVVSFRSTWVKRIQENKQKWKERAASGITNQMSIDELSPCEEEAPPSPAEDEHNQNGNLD
Description: as §1

Sequence of PDE1C (Q14123 whole entry): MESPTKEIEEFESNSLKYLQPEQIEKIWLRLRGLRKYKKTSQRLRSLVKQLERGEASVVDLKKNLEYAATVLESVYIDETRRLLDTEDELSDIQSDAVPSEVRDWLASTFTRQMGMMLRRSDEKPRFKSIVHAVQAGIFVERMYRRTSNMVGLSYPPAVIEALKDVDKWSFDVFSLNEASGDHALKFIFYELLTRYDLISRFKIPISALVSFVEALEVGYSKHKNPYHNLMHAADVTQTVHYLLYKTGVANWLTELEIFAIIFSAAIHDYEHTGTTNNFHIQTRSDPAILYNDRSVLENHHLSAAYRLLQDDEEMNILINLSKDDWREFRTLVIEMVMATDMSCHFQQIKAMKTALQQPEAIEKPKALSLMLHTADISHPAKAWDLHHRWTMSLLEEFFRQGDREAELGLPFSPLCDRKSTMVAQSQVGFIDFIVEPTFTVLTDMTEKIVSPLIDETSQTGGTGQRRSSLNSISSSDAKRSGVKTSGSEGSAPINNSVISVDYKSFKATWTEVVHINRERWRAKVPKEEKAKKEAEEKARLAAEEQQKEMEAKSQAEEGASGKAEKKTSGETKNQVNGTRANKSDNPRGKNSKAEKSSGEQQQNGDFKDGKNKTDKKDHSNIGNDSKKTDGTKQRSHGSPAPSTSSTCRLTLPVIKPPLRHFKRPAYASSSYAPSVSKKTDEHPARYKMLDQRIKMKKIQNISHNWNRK

SMILES	IC50 [1] [nM]	IC50 [2] [nM]	IC50 [3] [nM]
COc1ccc2c(NC3(C)CCOC3)ncnc2c1Cl (single isomer, unassigned) [7 stereoisomer 2]	48	490	75
COc1ccc2c(N(C)C3CCOC3C)ncnc2c1Cl (single isomer, unassigned) [14 Stereoisomer 4]	14	285	30
COc1ccc2c(NC3CCOC3C)ncnc2c1Cl (single isomer, unassigned) [5 stereoisomer 1]	27	300	49
COc1ccc2c(N(C)C3CCOC3C)ncnc2c1Cl (single isomer, unassigned) [14 Stereoisomer 2]	10	170	18
COc1ccc2c(NC3CCOC3)ncnc2c1F (single isomer, unassigned) [16 Stereoisomer 2]	230	315	81
COc1ccc2c(NC3CCOC3C)ncnc2c1F (single isomer, unassigned) [3 Stereoisomer 2]	260	420	87
COc1ccc2c(N3CC[C@@H]4OCCC43)ncnc2c1Cl (single isomer, unassigned) [9 Stereoisomer 2]	550	2260	1200
COc1ccc2c(NC3(C)CCOC3C)ncnc2c1Cl (single isomer, unassigned) [12 Stereoisomer 2]	38	286	65
COc1ccc2c(NC3CCOC3)ncnc2c1F (single isomer, unassigned) [16 Stereoisomer 1]	1200	1180	430
COc1ccc2c(N3CC[C@@H]4OCCC43)ncnc2c1Br (single isomer, unassigned) [10 Stereoisomer 1]	11	147	49
COc1ccc2c(NC3(C)CCOC3C)ncnc2c1F (single isomer, unassigned) [17 Stereoisomer 3]	390	451	100
COc1ccc2c(NC3CCOC3)ncnc2c1Cl (single isomer, unassigned) [4 Stereoisomer 1]	200	790	310
COc1ccc2c(N3CC[C@@H]4OCCC43)ncnc2c1Cl (single isomer, unassigned) [9 Stereoisomer 1]	23	156	40
COc1ccc2c(N(C)C3CCOC3)ncnc2c1Cl (single isomer, unassigned) [6 stereoisomer 1]	140	1800	330
COc1ccc2c(NC3CCOC3C)ncnc2c1Cl (single isomer, unassigned) [5 stereoisomer 3]	250	1500	460
COc1ccc2c(N3CC[C@@H]4OCCC43)ncnc2c1F (single isomer, unassigned) [8 Stereoisomer 1]	60	72	21
COc1ccc2c(NC3(C)CCOC3C)ncnc2c1F (single isomer, unassigned) [17 Stereoisomer 4]	440	408	140
COc1ccc2c(NC3CCOC3C)ncnc2c1Cl (single isomer, unassigned) [5 stereoisomer 4]	36	450	58
COc1ccc2c(NC3(C)CCOC3C)ncnc2c1F (single isomer, unassigned) [17 Stereoisomer 2]	22	73	5
COc1ccc2c(NC3CCOC3)ncnc2c1Cl (single isomer, unassigned) [4 Stereoisomer 2]	33	190	45
COc1ccc2c(NC3CCOC3C)ncnc2c1F (single isomer, unassigned) [3 Stereoisomer 1]	1800	1900	650
COc1ccc2c(NC3(C)CCOC3C)ncnc2c1F (single isomer, unassigned) [17 Stereoisomer 1]	98	184	27
COc1ccc2c(N3CC[C@@H]4OCCC43)ncnc2c1Br (single isomer, unassigned) [10 Stereoisomer 2]	210		

Continued, values first:

IC50 [1] [nM]	IC50 [2] [nM]	IC50 [3] [nM]	SMILES
33	292	65	COc1ccc2c(N(C)C3(C)CCOC3)ncnc2c1Cl (single isomer, unassigned) [11 Stereoisomer 1]
1200	2490	420	COc1ccc2c(N(C)C3(C)CCOC3C)ncnc2c1F (single isomer, unassigned) [19 Stereoisomer 3]
76	100	18	COc1ccc2c(N(C)C3CCOC3)ncnc2c1F (single isomer, unassigned) [2 Stereoisomer 2]
28	50	9.9	COc1ccc2c(NC3(C)CCOC3)ncnc2c1F (single isomer, unassigned) [1 Stereoisomer 1]
1400	2470	550	COc1ccc2c(N(C)C3CCOC3C)ncnc2c1F (single isomer, unassigned) [18 Stereoisomer 2]
200	2550	410	COc1ccc2c(N(C)C3(C)CCOC3C)ncnc2c1Cl (single isomer, unassigned) [13 Stereoisomer 1]
86	229	32	COc1ccc2c(N(C)C3(C)CCOC3C)ncnc2c1F (single isomer, unassigned) [19 Stereoisomer 1]
1100	1730	510	COc1ccc2c(N(C)C3CCOC3C)ncnc2c1F (single isomer, unassigned) [18 Stereoisomer 1]
120	515	60	COc1ccc2c(N(C)C3CCOC3C)ncnc2c1F (single isomer, unassigned) [18 Stereoisomer 4]
320	688	110	COc1ccc2c(N(C)C3(C)CCOC3)ncnc2c1F (single isomer, unassigned) [15 Stereoisomer 1]
81	333	47	COc1ccc2c(N(C)C3(C)CCOC3)ncnc2c1F (single isomer, unassigned) [15 Stereoisomer 2]
87	200	47	COc1ccc2c(N(C)C3CCOC3C)ncnc2c1F (single isomer, unassigned) [18 Stereoisomer 3]
260	250	65	COc1ccc2c(NC3(C)CCOC3)ncnc2c1F (single isomer, unassigned) [1 Stereoisomer 2]
17	207	34	COc1ccc2c(N(C)C3(C)CCOC3C)ncnc2c1Cl (single isomer, unassigned) [13 Stereoisomer 2]
34	97	10	COc1ccc2c(N(C)C3(C)CCOC3C)ncnc2c1F (single isomer, unassigned) [19 Stereoisomer 4]
